Test results from patent US10568939B2, “Composition and method for improving sleep duration and quality” (Board of Supervisors of Louisiana State University and …, priority 2016, dated 2020).

Legend:
Janus kinase 3 (Jak3) = test: Inhibition of Janus kinase 3 (Jak3) expression in LPS-stimulated HT-29 cells; type: cell-based; details: HT-29 cells stimulated by LPS; EGCG 20, 35, 50 μM; CE from 3, 6, 10 g light roasted chicory; combinations E1C1, E2C2, E3C3; triplicates; FIG. 2
Procedure: (§1) A series of in vitro tests were conducted, using levels of components that would be expected to approximate the concentrations that would be seen in vivo following oral consumption of 2 fluid ounces of the novel composition by a 70 kilogram individual.
(§2) • a. Inhibition of Janus kinase 3 (Jak3) by EGCG, CE, or a mixture of EGCG and CE. Jak3 is expressed solely in immune cells. Jak3 expression is an upstream event for the activation of TNF-α and subsequent cytokines such as IL-6. HT-29 colon cancer cells in T-75 flasks were stimulated by LPS (control). HT-29 cells in T-75 flasks were also stimulated by LPS and treated with EGCG (Treatment 1=20 μM (E1), Treatment 2=35 μM (E2), or Treatment 3=50 μM (E3)), CE (extract from 3 g (C1), 6 g (C2), or 10 g (C3) of light roasted chicory), or combinations of the respective low, medium, and high concentrations of EGCG and CE (E1C1, E2C2, or E3C3). C1, C2, or C3 concentrations approximated the levels that would be expected following consumption of 2 fluid ounces of the novel composition by a 70 kilogram individual. […] The effects of the treatments on histamine activity were determined by the inhibition of COX-2 expression. […] The effective concentrations of TNF-α, IL-1β or IL-6 in supernatants were calculated using a standard curve developed using known standards of TNF-α, IL-1β or IL-6. […]

COX-2 expression = test: Anti-histamine activity: inhibition of COX-2 expression in histamine-treated HeLa cells; type: cell-based; details: 1 μmol/L histamine, 18 h, EGCG 20, 35, 50 μM, positive controls mepyramine maleate and JNJ-7777120, FIG. 3
Procedure: as §1, §2

TNF-α = target: T1, TNF-α (Homo sapiens, UniProt P01375); test: TNF-α level by ELISA, supernatants of LPS-treated HT-29 cell cultures; type: cell-based; details: HT-29 supernatants, EGCG 20, 35, 50 μM, FIG. 4
T1 construct: TNF-alpha levels in HT-29 cell culture treated with LPS; endogenous in cells; host or cells: HT-29 (culture supernatant)
Procedure: as §1, §2

IL-1β = target: T2, IL-1β (Homo sapiens, UniProt P01584); test: IL-1β level by ELISA, supernatants of LPS-treated HT-29 cell cultures; type: cell-based; details: HT-29 supernatants, EGCG 20, 35, 50 μM, FIG. 5
T2 construct: IL-1β levels in HT-29 cell culture treated with LPS; endogenous in cells; host or cells: HT-29 (culture supernatant)
Procedure: as §1, §2

IL-6 = target: T3, IL-6 (Homo sapiens, UniProt P05231); test: IL-6 level by ELISA, supernatants of LPS-treated HT-29 cell cultures; type: cell-based; details: HT-29 supernatants, EGCG 20, 35, 50 μM, FIG. 6
T3 construct: IL-6 levels in HT-29 cell culture treated with LPS; endogenous in cells; host or cells: HT-29 (culture supernatant)
Procedure: as §1, §2

[1] = Effect of individual components alone versus the novel combination on sleep; type: in vivo, human; details: component alone or novel combination

T1 sequence (P01375 77-233 limits assumed): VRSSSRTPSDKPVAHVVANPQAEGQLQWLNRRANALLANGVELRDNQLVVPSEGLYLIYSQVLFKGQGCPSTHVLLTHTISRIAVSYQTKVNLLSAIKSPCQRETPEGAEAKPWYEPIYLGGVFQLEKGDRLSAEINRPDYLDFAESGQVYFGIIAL
T3 sequence (P05231 30-212): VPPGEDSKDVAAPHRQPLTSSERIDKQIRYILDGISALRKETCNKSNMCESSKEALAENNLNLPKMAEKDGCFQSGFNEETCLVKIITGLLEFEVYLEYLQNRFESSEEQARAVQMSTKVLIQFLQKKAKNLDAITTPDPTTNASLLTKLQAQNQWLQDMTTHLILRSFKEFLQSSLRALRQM
T2 sequence (P01584 117-269): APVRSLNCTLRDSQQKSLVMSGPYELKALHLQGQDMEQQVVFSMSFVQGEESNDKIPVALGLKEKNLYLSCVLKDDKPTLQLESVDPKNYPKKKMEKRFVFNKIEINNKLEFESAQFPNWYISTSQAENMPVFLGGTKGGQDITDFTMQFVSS

SMILES	Jak3 expression (Janus kinase 3 (Jak3))	COX-2 expression (anti-histamine activity) (COX-2 expression)	TNF-α activity/level (TNF-α)	IL-1β activity/level (IL-1β)	IL-6 activity/level (IL-6)	Sleep after awakening in the middle of the night [1]	Sleep onset, depth, efficiency, duration [1]
O=C(O[C@@H]1Cc2c(O)cc(O)cc2O[C@@H]1c1cc(O)c(O)c(O)c1)c1cc(O)c(O)c(O)c1 [EGCG, Epigallocatechin gallate]	inhibited Jak3 expression in a dose-dependent manner	inhibited COX-2 expression in a dose-dependent manner, although not as strongly as did the positive controls	inhibited the activity of each of TNF-α, IL-1β and IL-6 in a dose-dependent manner	inhibited the activity of each of TNF-α, IL-1β and IL-6 in a dose-dependent manner	inhibited the activity of each of TNF-α, IL-1β and IL-6 in a dose-dependent manner	does not improve sleep after awakening in the middle of the night	does not enhance sleep onset, depth, efficiency, or duration
CCNC(=O)CC[C@H](N)C(=O)O [Theanine]	–	–	–	–	–	does not improve sleep after awakening in the middle of the night	does not enhance sleep onset, depth, efficiency, or duration
